Assay results published in patent publication US10221158B2, “Heterocyclic constrained tricyclic sulfonamides as anti-cancer agents” (ICAHN SCHOOL OF MEDICINE AT MOUNT SINAI, priority 2015, dated 2019).

Tested on: H1650 lung cancer cells
Test: Cell viability assay (MTT, IC50 determination)
Assay type: cell-based
Conditions: Homo sapiens, NCI-H1650, 48 h drug treatment
Protocol: Cell Viability Assays (IC50 Determination)
Cell viability assays were performed according to Denizot, F. and R. Lang, Journal of Immunological Methods, 1986. 89(22): p. 271-277. H1650 lung cancer cells were plated at 150,000 cells per well in a 12 well plate. Twenty-four hours after plating, cells were treated as described with increasing concentrations of drug and control. Forty-eight hours after drug treatment, cells were treated with 100 μL of 3-(4,5-Dimethylthiazol-2-yl)-2,5-diphenyltetrazolium bromide (MTT) and incubated for 2 hours at 37 C. The MTT solution was subsequently replaced with 300 μL of n-propyl alcohol and re-aliquoted to a 96 well plate. Spectrophotometric analysis of each solution was performed using a 96 well plate reader at 600 nm in triplicate.

IC50: 15 µM
SMILES: O=S(=O)(N[C@@H]1COC[C@H](N2c3ccccc3CCc3ccccc32)[C@H]1O)c1ccc(OC(F)(F)F)cc1 (racemic) [Example 1, Rac-N-((3R,4R,5S)-5-(10,11-dihydro-5H-dibenzo[b,f]azepin-5-yl)-4-hydroxytetrahydro-2H-pyran-3-yl)-4-(trifluoromethoxy)benzenesulfonamide]
